Test results reported in paper PMC11245619, “Asymmetric total synthesis of polycyclic xanthenes and discovery of a WalK activator active against MRSA” (Nature Communications, 2024).
Values after ≈ are worked out from the molar mass of the structure shown.

How the values were obtained:
[1] = tested on: T1, Staphylococcus aureus ATCC 29213 (SA29213); experiment: microbe, parasite or virus in culture; design: broth microdilution MIC (CLSI), growth inhibition read by MTT; details: ATCC29213, 24 h, read-out: MIC
T1 construct: ATCC 29213
Procedure: Antibacterial activities of synthetic compounds in vitro The MICs of the antibacterial agents for all strains were determined using the broth microdilution method according to CLSI guidelines. Wells of 96-well microtiter plates (Nunc, Thermo Fisher Scientific Inc., Roskilde) were inoculated with 100 µL of CAMH broth or CAMH broth with 3% lysed horse blood (S. pneumoniae only), containing serially-diluted antimicrobials and a final inoculum of 5 × 10^5 CFU/mL. The concentration ranges were from 0.0625 to 128 μg/mL for each compound: daptomycin, vancomycin, polymyxin B and oxacillin. The microtiter plates were incubated at 37 °C for 24 h. The MIC was defined as the lowest concentration of an antimicrobial agent that inhibited 90% of bacterial growth determined by the MTT assay (MCE, USA)]. All MIC determinations were performed in duplicate.

[2] = biological target: T2, WalK (erWalK) (Staphylococcus aureus, UniProt Q6GKS6); experiment: SPR (Biacore 8K, CM5 chip); assay type: binding
T2 construct: extracellular part of the receptor WalK (erWalK, residues 35-182)

[3] = biological target: T3, WalK (erWalKR86C) (Staphylococcus aureus, UniProt Q6GKS6, R86C); experiment: SPR (Biacore 8K, CM5 chip); assay type: binding
T3 construct: erWalK (residues 35-182) with R86C mutation
T3 sequence (Q6GKS6 35-182 R86C): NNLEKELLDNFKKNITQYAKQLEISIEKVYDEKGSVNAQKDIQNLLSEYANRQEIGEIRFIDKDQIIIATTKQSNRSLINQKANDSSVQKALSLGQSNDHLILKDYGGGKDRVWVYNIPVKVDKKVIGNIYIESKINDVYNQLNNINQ

Compound | MIC [1] [µg/mL] | Kd [2] [µM] | Kd [3] [µM]
C[C@@H](O)[C@H]1C(=O)N2C(C(=O)O)=C(S[C@@H]3CN[C@H](C(=O)N(C)C)C3)[C@H](C)[C@H]12 [Meropenem] | 0.312 (≈ 0.815 µM) | – | –
CC(C)C(=O)c1c(O)c(C(C2=C(O)C(C)(C)C(=O)C(C)(C)C2=O)C(C)C)c(O)c2c1OC1=C(C(=O)C(C)(C)C(=O)C1(C)C)C2C(C)C (stereo not drawn) [compound 22, 22] | 0.5 (≈ 0.768 µM) | 11.1 | 73.8
CN[C@H](CC(C)C)C(=O)N[C@H]1C(=O)N[C@@H](CC(N)=O)C(=O)N[C@H]2C(=O)N[C@H]3C(=O)N[C@H](C(=O)N[C@H](C(=O)O)c4cc(O)cc(O)c4-c4cc3ccc4O)[C@H](O)c3ccc(c(Cl)c3)Oc3cc2cc(c3O[C@@H]2O[C@H](CO)[C@@H](O)[C@H](O)[C@H]2O[C@H]2C[C@](C)(N)[C@H](O)[C@H](C)O2)Oc2ccc(cc2Cl)[C@H]1O [Vancomycin] | 1 (≈ 0.69 µM) | – | –
CC1COc2c(N3CCN(C)CC3)c(F)cc3c(=O)c(C(=O)O)cn1c23 (stereo not drawn) [Ofloxacin] | 0.2 (≈ 0.553 µM) | – | –
NC[C@H]1O[C@H](O[C@H]2[C@H](O)[C@@H](O[C@H]3O[C@H](CO)[C@@H](O)[C@H](N)[C@H]3O)[C@H](N)C[C@@H]2N)[C@H](O)[C@@H](O)[C@@H]1O [Kanamycin] | 10 (≈ 20.6 µM) | – | –
CN(C)c1cc(NC(=O)CNC(C)(C)C)c(O)c2c1C[C@H]1C[C@H]3[C@H](N(C)C)C(O)=C(C(N)=O)C(=O)[C@@]3(O)C(O)=C1C2=O [Tigecycline] | 0.312 (≈ 0.534 µM) | – | –
CC(=O)NC[C@H]1CN(c2ccc(N3CCOCC3)c(F)c2)C(=O)O1 [Linezolid] | 2.5 (≈ 7.41 µM) | – | –
